Active and inactive are the calls of the source.
Tests used:
[1] = inhibition of K1F phage lysis, E. coli UTI89, bacterial capsule biogenesis inhibitors, alamar blue (AID 488966); assay type: functional
[2] = HeLa cell cytotoxicity, dose response, cytotoxicity control for MgcRacGAP inhibitor project (AID 624300); assay type: functional
[3] = target: T1, Rac GTPase-activating protein 1 (Homo sapiens, UniProt Q9H0H5); test: MgcRacGAP GTPase-activating activity inhibitors, confirmation, biochemical, ADP Hunter fluorescence, primary and confirmatory (AID 624330); assay type: functional
T1 sequence (Q9H0H5 whole entry): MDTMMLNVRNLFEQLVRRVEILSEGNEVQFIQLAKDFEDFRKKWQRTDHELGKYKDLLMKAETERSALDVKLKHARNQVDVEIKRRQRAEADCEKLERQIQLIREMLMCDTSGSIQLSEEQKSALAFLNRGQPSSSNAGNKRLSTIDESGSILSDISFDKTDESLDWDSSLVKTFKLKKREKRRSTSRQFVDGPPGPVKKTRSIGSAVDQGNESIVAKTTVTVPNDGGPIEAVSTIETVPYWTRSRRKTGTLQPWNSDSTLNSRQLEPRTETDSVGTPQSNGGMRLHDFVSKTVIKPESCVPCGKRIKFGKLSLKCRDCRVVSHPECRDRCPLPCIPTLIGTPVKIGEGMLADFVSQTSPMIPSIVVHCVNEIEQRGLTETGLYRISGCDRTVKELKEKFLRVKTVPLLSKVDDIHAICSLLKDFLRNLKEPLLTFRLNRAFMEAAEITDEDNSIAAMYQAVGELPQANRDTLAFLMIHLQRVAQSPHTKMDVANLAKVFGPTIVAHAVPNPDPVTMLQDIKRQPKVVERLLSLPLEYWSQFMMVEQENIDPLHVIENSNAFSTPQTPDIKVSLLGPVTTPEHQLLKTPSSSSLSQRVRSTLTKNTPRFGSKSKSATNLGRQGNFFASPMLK

[4] = target: T2, DNA repair protein RAD52 homolog (Homo sapiens, UniProt P43351); assay type: functional, biochemical
T2 sequence (P43351 whole entry): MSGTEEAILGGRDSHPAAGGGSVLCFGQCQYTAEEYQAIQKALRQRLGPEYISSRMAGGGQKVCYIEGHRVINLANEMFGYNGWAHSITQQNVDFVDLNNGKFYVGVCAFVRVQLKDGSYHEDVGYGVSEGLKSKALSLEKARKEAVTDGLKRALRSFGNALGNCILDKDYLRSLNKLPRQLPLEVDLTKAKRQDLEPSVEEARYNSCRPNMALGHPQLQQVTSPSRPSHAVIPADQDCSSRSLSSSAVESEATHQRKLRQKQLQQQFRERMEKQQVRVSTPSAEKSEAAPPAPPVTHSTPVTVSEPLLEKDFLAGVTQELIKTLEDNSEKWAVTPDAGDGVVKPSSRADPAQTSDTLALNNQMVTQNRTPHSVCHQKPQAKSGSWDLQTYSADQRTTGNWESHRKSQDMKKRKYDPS

INS1 = test: beta cell apoptosis inhibitors, cytokine rescue, dose response, luminescence, retest (AID 449756); assay type: functional, cell-based; conditions: Rattus norvegicus;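 also: cell death triggered by IL-1 beta plus TNF-alpha plus IFN-gamma mixture; protective hits raise ATP signal compared with cytokine alone wells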
[5] = Luminescence Cell-Based Dose Retest to Confirm Inhibitors of Cancer Stem Cells. [Related pubchem assays (depositor defined):AID2717, AID2721]; assay type: functional; conditions: Homo sapiens
[6] = M. tuberculosis H37Rv growth inhibitors, H37Rv strain (AID 1626); assay type: functional
[7] = target: Envelope glycoprotein gp160 (Human immunodeficiency virus 1, UniProt Q6QLK5); test: inhibitors of HIV fusion peptide binding, primary screen, biochemical, uHTS, fluorescence dequenching (AID 1986)
Envelope glycoprotein gp160, sequence (Q6QLK5 whole entry, the tested form may be a part): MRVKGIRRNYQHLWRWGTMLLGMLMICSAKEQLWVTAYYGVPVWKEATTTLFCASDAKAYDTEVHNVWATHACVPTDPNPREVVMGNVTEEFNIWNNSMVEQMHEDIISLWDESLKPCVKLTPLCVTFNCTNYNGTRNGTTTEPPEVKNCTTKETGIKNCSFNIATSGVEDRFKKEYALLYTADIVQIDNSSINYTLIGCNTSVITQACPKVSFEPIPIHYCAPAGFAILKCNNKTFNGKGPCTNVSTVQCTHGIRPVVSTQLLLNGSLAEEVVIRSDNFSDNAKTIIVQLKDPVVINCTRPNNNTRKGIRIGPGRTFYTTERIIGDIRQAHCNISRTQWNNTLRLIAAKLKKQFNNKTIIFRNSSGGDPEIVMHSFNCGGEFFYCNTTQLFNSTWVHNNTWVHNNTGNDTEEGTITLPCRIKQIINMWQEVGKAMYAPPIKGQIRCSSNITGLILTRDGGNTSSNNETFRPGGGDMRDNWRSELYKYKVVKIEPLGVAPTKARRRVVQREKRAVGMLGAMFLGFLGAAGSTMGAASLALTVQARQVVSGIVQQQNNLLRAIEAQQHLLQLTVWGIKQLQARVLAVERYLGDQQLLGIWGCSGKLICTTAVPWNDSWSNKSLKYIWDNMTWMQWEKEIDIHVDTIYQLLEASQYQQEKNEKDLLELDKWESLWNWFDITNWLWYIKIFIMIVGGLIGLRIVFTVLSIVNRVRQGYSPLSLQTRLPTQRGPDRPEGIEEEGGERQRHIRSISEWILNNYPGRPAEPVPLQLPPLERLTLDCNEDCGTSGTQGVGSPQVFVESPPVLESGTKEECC

[8] = target: Polyadenylate-binding protein 1 (Homo sapiens, UniProt P11940); test: PABP inhibition in translation initiation, SAR follow-up (AID 435018); assay type: functional
[9] = target: Eukaryotic translation initiation factor 4H (Homo sapiens, UniProt Q15056); test: eIF4H inhibition in translation initiation, SAR follow-up (AID 435011); assay type: functional
Insulin-degrading enzyme [10] = target: T3, Insulin-degrading enzyme (Homo sapiens, UniProt P14735); test: activators of endogenous IDE in HEK cells, dose response, cell-based, fluorescence polarization (AID 588439); assay type: functional
T3 sequence (P14735 whole entry): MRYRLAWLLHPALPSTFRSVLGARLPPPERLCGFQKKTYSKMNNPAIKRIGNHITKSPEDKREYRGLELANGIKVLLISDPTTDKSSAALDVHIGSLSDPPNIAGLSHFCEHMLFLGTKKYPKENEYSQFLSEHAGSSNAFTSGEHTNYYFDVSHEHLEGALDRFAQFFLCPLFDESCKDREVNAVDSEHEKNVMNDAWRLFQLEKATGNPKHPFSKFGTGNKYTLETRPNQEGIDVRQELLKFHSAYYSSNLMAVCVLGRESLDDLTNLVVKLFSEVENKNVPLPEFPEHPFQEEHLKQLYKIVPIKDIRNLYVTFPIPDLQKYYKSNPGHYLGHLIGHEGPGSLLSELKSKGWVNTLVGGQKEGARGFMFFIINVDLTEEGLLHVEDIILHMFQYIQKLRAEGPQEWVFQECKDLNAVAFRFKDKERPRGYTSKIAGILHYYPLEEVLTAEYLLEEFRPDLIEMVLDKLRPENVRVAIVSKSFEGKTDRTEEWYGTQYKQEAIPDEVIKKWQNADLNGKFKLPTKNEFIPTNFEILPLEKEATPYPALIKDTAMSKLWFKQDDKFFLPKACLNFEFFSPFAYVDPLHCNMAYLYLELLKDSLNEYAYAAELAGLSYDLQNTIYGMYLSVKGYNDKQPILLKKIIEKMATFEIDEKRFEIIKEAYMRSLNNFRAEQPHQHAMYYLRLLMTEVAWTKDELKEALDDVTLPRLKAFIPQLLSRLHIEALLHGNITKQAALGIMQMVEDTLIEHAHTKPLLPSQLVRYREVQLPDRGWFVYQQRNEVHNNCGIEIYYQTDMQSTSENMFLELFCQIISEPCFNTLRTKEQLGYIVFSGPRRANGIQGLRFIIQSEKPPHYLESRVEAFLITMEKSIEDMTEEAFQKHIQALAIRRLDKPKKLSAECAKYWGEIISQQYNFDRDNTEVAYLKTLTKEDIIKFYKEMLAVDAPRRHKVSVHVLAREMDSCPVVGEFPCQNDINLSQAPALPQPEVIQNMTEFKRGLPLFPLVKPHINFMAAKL

[11] = target: Cystic fibrosis transmembrane conductance regulator/Golgi-associated PDZ and coiled-coil motif-containing protein (Homo sapiens, UniProt P13569+Q9HD26); test: CAL PDZ peptide-binding inhibitors, dose response, biochemical, fluorescence polarization, Cerulean-tagged CAL PDZ, cherry-picks (AID 504773)
Cystic fibrosis transmembrane conductance regulator/Golgi-associated PDZ and coiled-coil motif-containing protein, sequence (P13569 whole entry, other chains not shown): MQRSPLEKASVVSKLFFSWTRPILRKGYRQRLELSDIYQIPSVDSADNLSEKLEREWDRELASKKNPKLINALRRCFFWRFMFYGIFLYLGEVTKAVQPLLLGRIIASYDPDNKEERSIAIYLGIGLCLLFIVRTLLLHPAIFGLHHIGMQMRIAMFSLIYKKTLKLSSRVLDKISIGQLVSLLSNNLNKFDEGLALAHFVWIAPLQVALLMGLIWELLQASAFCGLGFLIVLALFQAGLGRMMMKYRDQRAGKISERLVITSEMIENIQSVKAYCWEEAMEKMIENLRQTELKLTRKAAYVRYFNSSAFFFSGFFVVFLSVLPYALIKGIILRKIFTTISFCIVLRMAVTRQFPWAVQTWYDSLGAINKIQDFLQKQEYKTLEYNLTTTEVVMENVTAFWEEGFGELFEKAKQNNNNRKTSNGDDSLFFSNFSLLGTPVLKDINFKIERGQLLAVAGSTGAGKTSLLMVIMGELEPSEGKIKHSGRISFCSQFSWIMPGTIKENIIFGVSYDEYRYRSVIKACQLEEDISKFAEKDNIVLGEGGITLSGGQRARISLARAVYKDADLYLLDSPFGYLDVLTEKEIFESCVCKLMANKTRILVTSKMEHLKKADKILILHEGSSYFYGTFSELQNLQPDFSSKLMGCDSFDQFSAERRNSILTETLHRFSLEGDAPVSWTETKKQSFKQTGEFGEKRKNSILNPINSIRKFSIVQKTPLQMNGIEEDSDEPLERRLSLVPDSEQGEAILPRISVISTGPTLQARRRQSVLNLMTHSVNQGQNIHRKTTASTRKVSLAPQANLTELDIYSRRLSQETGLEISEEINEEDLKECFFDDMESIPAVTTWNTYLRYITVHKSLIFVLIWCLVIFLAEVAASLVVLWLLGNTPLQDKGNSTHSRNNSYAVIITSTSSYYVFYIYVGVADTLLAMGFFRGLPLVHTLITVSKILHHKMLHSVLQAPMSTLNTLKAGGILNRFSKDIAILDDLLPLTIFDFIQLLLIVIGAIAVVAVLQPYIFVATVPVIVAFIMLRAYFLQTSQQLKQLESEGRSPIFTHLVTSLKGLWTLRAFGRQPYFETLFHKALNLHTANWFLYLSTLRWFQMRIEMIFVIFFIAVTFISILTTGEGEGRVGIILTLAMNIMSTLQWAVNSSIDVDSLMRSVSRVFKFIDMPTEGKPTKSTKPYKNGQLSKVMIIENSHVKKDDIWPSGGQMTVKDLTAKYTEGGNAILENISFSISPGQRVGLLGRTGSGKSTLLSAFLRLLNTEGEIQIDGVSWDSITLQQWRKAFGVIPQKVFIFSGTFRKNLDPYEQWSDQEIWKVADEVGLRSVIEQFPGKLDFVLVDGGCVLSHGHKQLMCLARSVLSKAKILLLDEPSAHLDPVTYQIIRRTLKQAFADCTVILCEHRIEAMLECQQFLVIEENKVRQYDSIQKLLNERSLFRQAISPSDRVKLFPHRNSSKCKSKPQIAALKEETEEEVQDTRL

[12] = THP-1 cell cytotoxicity, dose response, cytotoxicity control for Vif-APOBEC3G degradation inhibitor project, THP-1 cells (AID 1117359); assay type: functional; conditions: Human immunodeficiency virus 1, THP-1
HeLa = test: HeLa cell cytotoxicity, dose response, cytotoxicity control, 24 h, cherry-picked samples (AID 504726); assay type: functional, cell-based; conditions: Homo sapiens;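 also: potency for cytotoxicity as loss of luminescence signal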
ORF 73 = ORF 73 (Human herpesvirus 8, UniProt O40947); test: inhibitors of C-LANA binding to LBS DNA, dose response, biochemical, fluorescence polarization, cherry-picked samples (AID 504725); design: species or system Human gammaherpesvirus 8;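 also: fluorescence polarization of a labeled DNA duplex reporting LANA DNA binding; potency is for inhibitors that block LANA binding to the DNA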
ORF 73, sequence (O40947 whole entry): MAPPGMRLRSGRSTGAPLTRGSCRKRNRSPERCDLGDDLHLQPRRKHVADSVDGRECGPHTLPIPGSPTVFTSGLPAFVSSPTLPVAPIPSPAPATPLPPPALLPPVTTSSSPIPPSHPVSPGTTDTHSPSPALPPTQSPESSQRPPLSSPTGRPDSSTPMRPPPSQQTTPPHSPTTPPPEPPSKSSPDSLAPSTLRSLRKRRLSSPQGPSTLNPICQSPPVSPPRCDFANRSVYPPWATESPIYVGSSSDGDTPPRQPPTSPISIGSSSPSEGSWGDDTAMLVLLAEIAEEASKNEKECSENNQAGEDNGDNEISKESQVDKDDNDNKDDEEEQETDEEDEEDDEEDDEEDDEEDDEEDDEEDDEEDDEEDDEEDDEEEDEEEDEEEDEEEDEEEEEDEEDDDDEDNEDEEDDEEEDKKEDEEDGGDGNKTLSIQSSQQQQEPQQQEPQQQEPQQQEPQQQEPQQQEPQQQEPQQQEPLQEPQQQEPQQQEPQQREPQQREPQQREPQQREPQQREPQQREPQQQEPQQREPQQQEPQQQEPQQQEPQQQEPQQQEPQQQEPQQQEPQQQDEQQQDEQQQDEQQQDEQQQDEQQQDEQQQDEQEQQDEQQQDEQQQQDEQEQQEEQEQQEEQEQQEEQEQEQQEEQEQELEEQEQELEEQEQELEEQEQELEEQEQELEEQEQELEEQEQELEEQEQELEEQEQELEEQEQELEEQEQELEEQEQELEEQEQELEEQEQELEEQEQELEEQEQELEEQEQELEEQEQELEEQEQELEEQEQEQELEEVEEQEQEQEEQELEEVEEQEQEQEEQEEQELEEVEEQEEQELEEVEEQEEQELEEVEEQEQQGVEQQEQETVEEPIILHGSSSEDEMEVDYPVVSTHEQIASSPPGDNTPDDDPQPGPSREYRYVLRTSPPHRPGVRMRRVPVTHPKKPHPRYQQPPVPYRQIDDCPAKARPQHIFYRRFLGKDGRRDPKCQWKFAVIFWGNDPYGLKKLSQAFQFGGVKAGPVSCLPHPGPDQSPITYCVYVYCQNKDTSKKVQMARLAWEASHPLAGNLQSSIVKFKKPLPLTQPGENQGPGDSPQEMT

HEK293 [13] = test: optical interference in Abeta FP readout, dose response, artefact control for IDE activator project, biochemical, fluorescence polarization (AID 588442); assay type: functional, cell-based; conditions: Homo sapiens
HEK293 [14] = test: HEK cell cytotoxicity by LDH release, dose response, cytotoxicity control for IDE activator project, fluorescence, HEK cells (AID 588440); assay type: functional, cell-based; conditions: Homo sapiens;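 also: cytotoxicity by LDH release measuring loss of membrane integrity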
[15] = target: Glutathione-S-transferase (Schistosoma japonicum, UniProt Q26513); test: biotin-GST/anti-GST TR-FRET signal inhibitors, dose response, artefact control for Vif-APOBEC3G degradation inhibitor project, biochemical (AID 1117362); assay type: functional
Glutathione-S-transferase, sequence (Q26513 whole entry): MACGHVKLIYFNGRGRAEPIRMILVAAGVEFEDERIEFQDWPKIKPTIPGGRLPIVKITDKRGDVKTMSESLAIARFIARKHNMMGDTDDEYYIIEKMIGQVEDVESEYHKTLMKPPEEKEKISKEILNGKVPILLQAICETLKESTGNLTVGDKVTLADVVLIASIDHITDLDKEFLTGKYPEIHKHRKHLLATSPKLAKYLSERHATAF

[16] = target: Intestinal-type alkaline phosphatase (Homo sapiens, UniProt P09923); test: Dose Response confirmation of uHTS hits from a small molecule inhibitors of human intestinal alkaline phosphatase via a luminescent assay. [Related pubchem assays (depositor defined):AID2544, AID2574]; assay type: functional
Paired box protein Pax-8 = Paired box protein Pax-8 (Homo sapiens, UniProt Q06710); test: inhibitors of PAX8-driven TPO luciferase reporter, dose response, RMG-I cells, cherry-pick (AID 687027); assay type: functional, cell-based;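 also: luciferase reporter driven by Pax8 target thyroperoxidase promoter measured by SteadyGlo luminescence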
Paired box protein Pax-8, sequence (Q06710 whole entry): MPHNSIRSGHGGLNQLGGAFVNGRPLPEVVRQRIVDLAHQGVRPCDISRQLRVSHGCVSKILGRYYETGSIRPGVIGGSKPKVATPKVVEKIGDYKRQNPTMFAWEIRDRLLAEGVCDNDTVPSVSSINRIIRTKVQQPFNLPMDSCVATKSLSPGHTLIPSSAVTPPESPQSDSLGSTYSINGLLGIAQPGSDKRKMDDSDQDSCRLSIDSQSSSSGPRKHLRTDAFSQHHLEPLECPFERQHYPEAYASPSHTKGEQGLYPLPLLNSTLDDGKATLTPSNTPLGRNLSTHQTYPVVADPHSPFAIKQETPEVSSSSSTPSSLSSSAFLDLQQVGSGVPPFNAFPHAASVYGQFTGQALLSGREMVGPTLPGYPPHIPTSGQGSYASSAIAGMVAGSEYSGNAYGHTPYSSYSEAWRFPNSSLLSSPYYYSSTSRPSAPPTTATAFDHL

Insulin-degrading enzyme [17] = target: T3, Insulin-degrading enzyme; test: activators of recombinant IDE enzyme, dose response, counter-screen for IDE activator project, biochemical, fluorescence polarization (AID 588681)
[18] = target: T4, Tyrosine-protein phosphatase non-receptor type 7 (Homo sapiens, UniProt P35236); test: redox-dependent HePTP inhibition, mechanism study, biochemical, fluorescence (AID 2068); assay type: functional
T4 sequence (P35236 whole entry): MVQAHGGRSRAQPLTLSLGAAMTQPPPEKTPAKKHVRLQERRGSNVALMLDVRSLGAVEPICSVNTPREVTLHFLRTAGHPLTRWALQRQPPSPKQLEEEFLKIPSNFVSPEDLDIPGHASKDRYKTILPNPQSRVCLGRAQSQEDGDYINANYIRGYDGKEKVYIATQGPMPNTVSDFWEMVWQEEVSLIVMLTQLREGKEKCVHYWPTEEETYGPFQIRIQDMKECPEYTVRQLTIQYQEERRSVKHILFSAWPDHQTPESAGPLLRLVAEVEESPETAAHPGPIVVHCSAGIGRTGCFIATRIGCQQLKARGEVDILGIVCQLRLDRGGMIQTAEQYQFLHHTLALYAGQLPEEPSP

[19] = target: T5, Dual specificity protein phosphatase 3 (Homo sapiens, UniProt P51452); test: SAR VHR1 Fluorescent Assay for In Vitro dose response studies. [Related pubchem assays (depositor defined):AID1654, AID1661, AID1878, AID1992, AID2004, AID2070, AID2085]; assay type: functional
T5 sequence (P51452 whole entry): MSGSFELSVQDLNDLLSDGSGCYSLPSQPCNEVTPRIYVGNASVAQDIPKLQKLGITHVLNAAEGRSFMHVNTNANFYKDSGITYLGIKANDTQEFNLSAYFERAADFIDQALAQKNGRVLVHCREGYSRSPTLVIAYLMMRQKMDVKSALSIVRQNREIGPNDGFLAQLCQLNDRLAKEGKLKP

[20] = target: T6, Dual specificity protein phosphatase 6 (Rattus norvegicus, UniProt Q64346)
T6 sequence (Q64346 whole entry): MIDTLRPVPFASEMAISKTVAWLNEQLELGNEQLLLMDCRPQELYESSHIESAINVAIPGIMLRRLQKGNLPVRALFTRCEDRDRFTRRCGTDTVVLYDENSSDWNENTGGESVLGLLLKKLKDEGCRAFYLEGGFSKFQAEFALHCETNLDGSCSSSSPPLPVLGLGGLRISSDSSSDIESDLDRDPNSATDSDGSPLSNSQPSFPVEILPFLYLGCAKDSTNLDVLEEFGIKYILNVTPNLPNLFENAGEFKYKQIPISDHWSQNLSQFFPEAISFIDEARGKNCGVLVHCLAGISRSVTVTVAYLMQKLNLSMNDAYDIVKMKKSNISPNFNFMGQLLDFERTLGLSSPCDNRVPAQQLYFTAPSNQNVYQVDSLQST

[21] = target: T6, Dual specificity protein phosphatase 6; assay type: functional
[22] = target: T5, Dual specificity protein phosphatase 3; test: MOA VHR1 Fluorescent secondary assay for identification of redox-state modulating compounds. [Related pubchem assays (depositor defined):AID1654, AID1661, AID1878, AID1957]
[23] = target: T4, Tyrosine-protein phosphatase non-receptor type 7; assay type: functional
[24] = target: Glyceraldehyde-3-phosphate dehydrogenase (Homo sapiens, UniProt P04406)
Glyceraldehyde-3-phosphate dehydrogenase, sequence (P04406 whole entry): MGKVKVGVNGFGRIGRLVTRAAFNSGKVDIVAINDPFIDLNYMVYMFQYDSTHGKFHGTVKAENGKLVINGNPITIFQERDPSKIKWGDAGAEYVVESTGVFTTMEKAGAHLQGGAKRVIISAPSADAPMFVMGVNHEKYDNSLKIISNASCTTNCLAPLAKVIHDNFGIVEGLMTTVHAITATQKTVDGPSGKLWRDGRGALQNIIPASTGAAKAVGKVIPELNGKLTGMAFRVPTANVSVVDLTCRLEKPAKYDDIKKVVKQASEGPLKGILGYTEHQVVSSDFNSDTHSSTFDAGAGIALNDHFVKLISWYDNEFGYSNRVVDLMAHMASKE

For `O=C1c2cccc(NCCNCCO)c2C(=O)c2cccc(NCCNCCO)c21`, the IC50 [1] was > 300 µM (active), the CC50 [2] was 23.1 µM (active) and the IC50 [3] was 41.3 µM (active). The AC50 [4] was < 0.15 µM (active).
With `O=S(=O)(Nc1nc2ccccc2nc1Nc1ccc(N2CCOCC2)cc1)c1cc(Cl)ccc1Cl` the AC50 (INS1) was 5.91 µM (active), the AC50 [5] was 4.38 µM (active) and the IC50 [6] was > 100 µM (active). For the same molecule, the IC50 [7] was > 99 µM (inactive).
With `COc1cc(C=NNC(=O)c2ccccc2O)ccc1OCC(=O)Nc1ccccc1` the IC50 [8] was 52.6 µM (active) and the IC50 [9] was 2.41 µM (active).
With `COC(=O)c1ccccc1-c1c2ccc(=N)cc-2oc2cc(N)ccc12` the EC50 (Insulin-degrading enzyme [10]) was > 54.7 µM (inactive), the AC50 [11] was 3.6 µM (active) and the CC50 [12] was 5.49 µM (active). For the same molecule, the AC50 (HeLa) was 34 µM (active), the AC50 (ORF 73) was < 0.015 µM (active) and the EC50 (HEK293 [13]) was 0.045 µM (active). For the same molecule, the IC50 (HEK293 [14]) was > 89.2 µM (inactive), the IC50 [15] was 9.91 µM (active) and the IC50 [16] was > 100 µM (inactive). The AC50 (Paired box protein Pax-8) was 1.41 µM (active) and the EC50 (Insulin-degrading enzyme [17]) was > 54.7 µM (inactive).
For `Cc1cc(C)c2nc3s/c(=C\c4ccc(-c5ccccc5C(=O)O)o4)c(=O)n3c2c1`, the IC50 [18] was 0.805 µM (active), the IC50 [19] was 5.82 µM (active) and the IC50 [20] was 13.8 µM (active). For the same molecule, the IC50 [21] was 15.6 µM (active), the IC50 [22] was 0.68 µM (active) and the IC50 [23] was 2.4 µM (active). For the same molecule, the IC50 [24] was 87.1 µM (active).

Source: ChEMBL document CHEMBL1201862, “PubChem BioAssay data set” (2004)
